Experimental data from patent US20080248008A1, “Inhibitors of Protein Kinase a Anchoring” (priority 2004, published 2008).

What was measured:
PKA-RIα = PKA-RIα (Homo sapiens, UniProt P10644); assay: Solid phase pull down from T cell lysate, PKA-RIα; format: binding; parameters: endogenous in cells; host or cells: Jurkat T cells; settings: overnight
Method: Solid phase assay and cell lysate. 5×10^6 Y1 cells or 20×10^6 Jurkat T cells lysed in 150 mM NaCl, 1% NP-40, 0.5% deoxycholate, 0.1% SDS and 50 mM Tris HCl (7.8) were incubated overnight at 4° C. with MEME3 and SM3 peptides synthesized on membranes (Autospot, Intavis, AG). The membranes were washed two times for 10 minutes in lysis buffer and thereafter in high salt lysis buffer (1 M NaCl) before boiling in SDS-PAGE loading buffer.
Solid phase pull down (see schematic illustration in FIG. 24A, left panel) was performed to analyse endogenous PKA binding to MEME3. MEME3 and SM3 peptides synthesized in triplicate on membranes were incubated overnight in T cell lysate, thereafter bound proteins were eluted, subjected to 10% PAGE electrophoresis and analysed by immunoblotting (FIG. 11). The presence of PKA subunits was assessed by immunoblotting using specific antibodies against PKA-RIα and PKA-RIIα subunits.

[1] = molecular target: T1, PKA-type II in lipid rafts of human peripheral blood T cells (Homo sapiens, UniProt P13861); assay: PKA type II content of lipid rafts from human T cells; format: cell-based; settings: n=4
T1 construct: endogenous in cells; host or cells: human peripheral blood CD3+ T cells
T1 sequence (P13861 whole entry): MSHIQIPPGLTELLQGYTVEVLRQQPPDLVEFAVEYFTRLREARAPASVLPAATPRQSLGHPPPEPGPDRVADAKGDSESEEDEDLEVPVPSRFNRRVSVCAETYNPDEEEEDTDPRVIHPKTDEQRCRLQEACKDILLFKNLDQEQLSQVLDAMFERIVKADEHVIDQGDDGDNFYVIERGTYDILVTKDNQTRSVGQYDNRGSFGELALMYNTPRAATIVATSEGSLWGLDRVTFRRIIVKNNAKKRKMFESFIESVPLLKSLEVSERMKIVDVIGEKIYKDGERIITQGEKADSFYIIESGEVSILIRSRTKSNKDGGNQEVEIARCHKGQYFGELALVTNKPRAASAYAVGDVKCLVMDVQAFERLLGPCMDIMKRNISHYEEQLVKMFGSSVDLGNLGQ
Method: (§1) Lipid Raft Purification. Isolation of lipid rafts or glycolipid-enriched membrane microdomains was performed as described in detail elsewhere (Zhang, W. et al., 1998, Immunity 9:239-246). In brief, cells were homogenized in 1 ml ice-cold lysis buffer (50 mM Hepes, pH 7.4, 100 mM NaCl, 5 mM EDTA, […], 10 mM sodium pyrophosphate, 1 mM Na3VO4, 50 mM NaF, 1 mM PMSF, and protease inhibitors) by 10 pestle strokes in a Dounce homogenizer, loaded at the bottom of a 40-5% sucrose gradient and centrifuged at 200,000 g for 5 or 20 h. 80 μl or 0.4-ml fractions were collected from the top. The fractions were analysed by immunoblot analysis. LAT was used as a marker for lipid raft fractions.
Lipid rafts were purified from isolated human peripheral blood T cells treated with MEME3-Arg11 or SM3-Arg11 for 12 hours, followed by 10% PAGE and blotting onto a PVDF membrane and immunoblotting (FIG. 18, left panel). The PKA content was measured by densitometry of immunoblots (n=4). PKA type I in cells treated with 10 μM or 25 μM M3-Arg11 was reduced by 80% and 90%, respectively. The very weak signal observed after immunoblotting using antibodies against RIIα (data not shown) was measured by densitometry of the autoradiogram. The PKA-type II level was not reduced in lipid rafts from human peripheral blood T cells treated with MEME3-Arg11 (FIG. 18, right panel, n=4).

Lck-PY505 = Lck-PY505 level in lipid rafts of forskolin-stimulated T cells; format: cell-based, human; settings: 25 μM, 12 hours, n=3
Method: Antibodies. RI or RII were immunoprecipitated with polyclonal antibodies against human RI or human RII at a 3 μg/ml dilution (Santa Cruz Biotechnology). MEME3 or scrambled peptide was immunoprecipitated with 1.5 μl of anti-GFP antiserum (Invitrogen). Monoclonal (Transduction laboratories) or polyclonal antibodies (Santa Cruz Biotechnology) against human RIα and RIIα were used at a 1 μg ml^−1 or 0.5 μg ml^−1 ilution for Western blotting. Polyclonal antibodies against human Cα (Santa Cruz Biotechnology) and LAT (Upstate Biotechnology) were used at a 0.4 μg ml^−1 and a 1 μg ml^−1 dilution for Western blotting, respectively. Polyclonal antibodies against LckPY505 (Cell Signaling) were used at a 1:1000 dilution and polyclonal antibody raised towards PS364 in Csk were used as previously described (Yaqub et al., Biochem. J., 372: p 271-8, 2003). Polyclonal antibodies against StAR (Affinity BioReagents) were used at 1 μg ml^−1. […]
Peripheral blood T cells were incubated in the absence (FIG. 20, A) or presence of 25 μM MEME3-Arg11 (B) or 25 μM SM3-Arg11 (C) for 12 hours and stimulated with forskolin to activate the PKA-Csk inhibitory pathway. […] Next, fractions were analysed by 10% PAGE, blotting onto a PVDF membrane and immunoblotting using phosphospecific antibodies to Lck-PY505 (FIG. 20, panels A-C).

[2] = molecular target: T2, PKA type I in lipid rafts of human peripheral blood T cells (Homo sapiens, UniProt P10644); assay: PKA type I content of lipid rafts from human T cells (immunoblot densitometry); format: cell-based; settings: n=4; for reduction of PKA type I in lipid rafts: 12 hours
T2 construct: endogenous in cells; host or cells: human peripheral blood T cells
Method: as §1
Isolation of T cells. Human peripheral blood T cells were purified by negative selection (95-98% pure) as described (Aandahl E M et al., 1998, FASEB J. 12:855-62). Lipid Raft Purification. Isolation of lipid rafts or glycosphingolipid-enriched membrane microdomains from T cells was performed by small scale ultracentrifugation. In brief, 20 million cells were homogenized in 250 μl ice-cold lysis buffer (50 mM Hepes, pH 7.4, 100 mM NaCl, 5 mM EDTA, […], 10 mM sodium pyrophosphate, 1 mM Na3VO4, 50 mM NaF, 1 mM PMSF, and protease inhibitors) by 10 pestle strokes in a Dounce homogenizer, loaded at the bottom of a 40 to 50 sucrose gradient and centrifuged at 200,000 g for 5 h. 80 μl fractions were collected from the top. The fractions were analysed by immunoblot analysis. LAT was used as a marker for lipid raft fractions. […]
Lipid rafts were purified from isolated human peripheral blood T cells treated with MEME3-Arg11 or SM3-Arg11 for 12 hours, followed by 10% PAGE and blotting onto a PVDF membrane and immunoblotting (FIG. 18, left panel). The PKA content was measured by densitometry of immunoblots (n=4). […] The very weak signal observed after immunoblotting using antibodies against RIIα (data not shown) was measured by densitometry of the autoradiogram. […]

[3] = molecular target: T3, membrane localized RI in Jurkat T cells (Homo sapiens, UniProt P10644); assay: Immunofluorescence of RI localisation in Jurkat T cells; format: cell-based
T3 construct: endogenous in cells; host or cells: Jurkat T cells

## IEKELAQQYQNADAITLE [SM3, scrambled MEME3 negative control peptide, reference compound]
PKA-RIα
  immobilization of PKA-RIα: Neither PKA-RIα nor PKA-RIIα bound

## LEQYANQLADQIIKEATERRRRRRRRRrr [MEME3-Arg11]
[1]
  PKA-type II level in lipid rafts: not reduced
Lck-PY505
  reduction of LckPY505 levels compared to SM3-Arg11 treated cells: 60%
[2]; 10 μM
  reduction of PKA type I in lipid rafts: 80%
[2]; 10 μM, primary human T cells
  reduction of RI and C concentration in lipid rafts compared to SM3: 80%
[2]; 25 μM
  reduction of PKA type I in lipid rafts: 90%
[3]; 1 μM
  displacement of membrane localized RI: some displacement of RI from cell membrane
[3]; 5 μM
  displacement of membrane localized RI: All membrane localized RI was displaced and was delocalised
